From patent US20120237482A1, “METHODS FOR TREATMENT OF NEUROLOGICAL DISORDERS BY MODULATION OF MICROGLIAL ACTIVATION” (priority 2011, published 2012)

Test: Case report: with autism given ibuprofen for children during a 7-day fever
Assay type: in vivo, human
Conditions: one child, ibuprofen about 30-40 mg/kg throughout 7 days
Description: Subject […] was born […], and developed normally until reaching […] (the “regression time”). […] The […] developed autistic symptoms after the regression time, such as ceasing to respond to their name and losing the skills they had attained so far as their neurological health progressively deteriorated. At or about the same time of the regression time, the […] also developed other medical problems including Vitiligo. After an evaluation, a therapist from the Early Child Intervention Program advised the parents that the child had red flags for autism. Following a viral and bacterial infection […], the […]'s autistic symptoms became severe. The […] was officially diagnosed with autism by a developmental pediatrician, and qualified for the Preschool Program for Children With Disabilities (PPCD). While in the PPCD program, the […] was evaluated by a speech therapist who diagnosed them with severe speech impairments. A video of the child showing severe autistic symptoms is available at http://www.youtube.com/watch?v=GbEeNJgaIQQ. When the child turned […] they developed another viral infection and developed a high fever that lasted over 7 days. […] They were more aware, calm and was saying more words. […] Gastrointestinal problems caused by the ibuprofen soon surfaced, however. […]

**Q.** What does the source list for `CC(C)Cc1ccc(C(C)C(=O)O)cc1` (centres unmarked) [ibuprofen]?
**A.** autistic symptoms while under ibuprofen (autism, viral infection with fever): autistic symptoms decreased; gastrointestinal side effects of ibuprofen (little food intake): gastrointestinal lesions and ulcers caused by the ibuprofen
